Results reported in US8158806B2, “DAT1” (Department of Biotechnology, priority 2004, dated 2012).
Where two headings read alike, the source gives them in different places.

How the values were obtained:
HCT 116 = test: MTT cell viability assay, HCT 116; type: cell-based; conditions: HCT 116 (Human colon), 48 hours, average of three experiments, read-out: IC50 values (growth inhibition constants)
Method: (§1) The compound DAT1 was tested for its cytotoxicity on human cervical, uterus and colon cancer cell lines and mouse fibrocercoma cells. Cell lines were obtained from ATCC, USA and NCCS, Pune, India. MTT assay, which correlates a fomazan dye formation wife the number of viable cells, was used for this purpose.
(§2) • 3. Cell Viability Assay: MTT assay was used to determine fee number of viable cells upon drug addition. Cells were seeded in microtitre plates (generally 5×10^3 cells per well) and were incubated with different concentrations of the cytotoxic agents for 48 h. Subsequently, 100 μl of MTT solution (0.6 mg/ml) was added per well and incubated at 37° C. for additional 2 h. The amount of formazan salt was quantified in quadruplicates by recording fee absorbance at 570 ran using a Biorad Plate reader. The growth inhibition constants (IC50) were calculated from the semi logarithmic dose response plots using fee nonlinear regression program Origin. All the experiments were done for at least three times. • 4. Microtubule and Tubulin Preparation: Microtubular protein was prepared from goat brains by two cycles of temperature dependent assembly-disassembly process in PEM buffer (100 mM PIPES, pH 6.9, 1 mM MgCl2 & 1 mM EGTA ) with 1 mM GTP at 37° C. For fee polymerization experiments, it was followed by one more cycle in PEM. Tubulin was purified from 2X MTP using glutamate buffer for assembly. • 5. Polymerization assay: MTP polymerization, in fee presence or absence of DAT1, was measured by the time course of fee turbidity at 37° at 345 nm. A Shimadzu UV-1601 double beam spectrophotometer fitted with a temperature-controlled circulating water bath was used for this purpose. • 6. […] Tubulin binding: Emission spectra of DAT1 in presence of tubulin were recorded from 400 nm to 600 nm using an excitation wavelength of 374 nm. Excitation and emission bandpasses are 2.5 nm each and the fluorescence values recorded are uncorrected. All fluorescence measurements were performed in a Perkin-Elmer model LS50B Luminescence spectrometer.

HeLa = test: MTT cell viability assay, HeLa; type: cell-based; conditions: HeLa (Human cervix), 48 hours, average of three experiments, read-out: IC50 values (growth inhibition constants)
Method: as §1, §2

L-929 = test: MTT cell viability assay, L-929; type: cell-based; conditions: L929, L-929 (Mouse connective tissue), 48 hours, average of three experiments, read-out: IC50 values (growth inhibition constants)
Method: as §1
(§3) • 3. Cell Viability Assay: MTT assay was used to determine fee number of viable cells upon drug addition. Cells were seeded in microtitre plates (generally 5×10^3 cells per well) and were incubated with different concentrations of the cytotoxic agents for 48 h. Subsequently, 100 μl of MTT solution (0.6 mg/ml) was added per well and incubated at 37° C. for additional 2 h. The amount of formazan salt was quantified in quadruplicates by recording fee absorbance at 570 ran using a Biorad Plate reader. The growth inhibition constants (IC50) were calculated from the semi logarithmic dose response plots using fee nonlinear regression program Origin. […] Polymerization assay: MTP polymerization, in fee presence or absence of DAT1, was measured by the time course of fee turbidity at 37° at 345 nm. […] Tubulin binding: Emission spectra of DAT1 in presence of tubulin were recorded from 400 nm to 600 nm using an excitation wavelength of 374 nm. Excitation and emission bandpasses are 2.5 nm each and the fluorescence values recorded are uncorrected. […]

CaSki = test: MTT cell viability assay, CaSki; type: cell-based; conditions: Ca-Ski, CaSki (Human cervix), 48 hours, average of three experiments, read-out: IC50 values (growth inhibition constants)
Method: as §1, §3

SW 620 = test: MTT cell viability assay, SW 620; type: cell-based; conditions: SW 620 (Human colon), 48 hours, average of three experiments, read-out: IC50 values (growth inhibition constants)
Method: as §1, §2

SiHa = test: MTT cell viability assay, SiHa; type: cell-based; conditions: SiHa (Human cervix), 48 hours, average of three experiments, read-out: IC50 values (growth inhibition constants)
Method: as §1, §3

MES-SA/Dx5 = test: MTT cell viability assay, multidrug resistant MES-SA/Dx5; type: cell-based, Human; conditions: for IC50: MES-SA/Dx5 (Human uterus), multidrug resistant, 48 hours, MTT, average of three experiments, read-out: IC50 values (growth inhibition constants)
Method: as §1
• 3. Cell Viability Assay: MTT assay was used to determine fee number of viable cells upon drug addition. Cells were seeded in microtitre plates (generally 5×10^3 cells per well) and were incubated with different concentrations of the cytotoxic agents for 48 h. Subsequently, 100 μl of MTT solution (0.6 mg/ml) was added per well and incubated at 37° C. for additional 2 h. The amount of formazan salt was quantified in quadruplicates by recording fee absorbance at 570 ran using a Biorad Plate reader. The growth inhibition constants (IC50) were calculated from the semi logarithmic dose response plots using fee nonlinear regression program Origin. All the experiments were done for at least three times. • 4. Microtubule and Tubulin Preparation: Microtubular protein was prepared from goat brains by two cycles of temperature dependent assembly-disassembly process in PEM buffer (100 mM PIPES, pH 6.9, 1 mM MgCl2 & 1 mM EGTA ) with 1 mM GTP at 37° C. For fee polymerization experiments, it was followed by one more cycle in PEM. Tubulin was purified from 2X MTP using glutamate buffer for assembly. • 5. Polymerization assay: MTP polymerization, in fee presence or absence of DAT1, was measured by the time course of fee turbidity at 37° at 345 nm. A Shimadzu UV-1601 double beam spectrophotometer fitted with a temperature-controlled circulating water bath was used for this purpose. • 6. Immunofluorescence assay: HeLa cells were incubated with the drug for 24 h at 37° C., washed with PBS and fixed with 4% paraformaldehyde at 4° C. Subsequently, they were washed and permeabilized with 0.2% Triton X-100 in PBS for 20 min at 37° C. […] Tubulin binding: Emission spectra of DAT1 in presence of tubulin were recorded from 400 nm to 600 nm using an excitation wavelength of 374 nm. Excitation and emission bandpasses are 2.5 nm each and the fluorescence values recorded are uncorrected. All fluorescence measurements were performed in a Perkin-Elmer model LS50B Luminescence spectrometer.

[1] = test system: human cervical, uterus and colon cancer cell lines and mouse fibrocercoma cells; test: MTT cytotoxicity, panel of cancer cell lines (summary); type: cell-based; conditions: read-out: IC50 values, range
Method: as §1, §3

IMR 90 (lung epithelial) = test: Cell survival in normal immortalized cell line; type: cell-based; conditions: concentration much more than the IC50 values in the cancer cell lines; data not shown
Source text: The cell survival in fee normal immortalized cell line IMR 90 (lung epithelial) was good after fee treatment of DAT1 in a concentration which was much more than the IC50 values in all fee cancer cell lines tested. In comparison, fee cell survival was less upon vinblastine treatment and similar upon paclitaxel treatment in similar concentrations (data not shown).

[2] = multidrug resistant cell line MES-SA/DX5

Row | IC50 (HCT 116) | IC50 (HeLa) | Structure (SMILES) | IC50 (L-929) | IC50 (CaSki) | IC50 (SW 620) | IC50 (SiHa) | IC50 (MES-SA/Dx5) | times more active than paclitaxel (MES-SA/Dx5; [2]) | times more active than vinblastine (MES-SA/Dx5; [2]) | IC50 ([1]; in 2 cell lines) | IC50 ([1]; in 5 out of the 9 cell lines tested) | cell survival after treatment (IMR 90 (lung epithelial))
1 | 0.3 µM | 0.054 µM | COc1ccc(Nc2nc(N)c(C(=O)c3ccccc3)s2)cc1 [DAT1, Diaminoketothiazole] | 1 µM | 0.2 µM | 0.2 µM | 5 µM | 0.35 µM | 15 times | 2 times | 1 to 5 µM | 0.05 to 0.3 µM | good
2 | 0.012 µM | 0.034 µM | CC(=O)O[C@H]1C(=O)[C@@]2(C)[C@H]([C@H](OC(=O)c3ccccc3)[C@]3(O)C[C@H](OC(=O)[C@H](O)[C@@H](NC(=O)c4ccccc4)c4ccccc4)C(C)=C1C3(C)C)[C@]1(OC(C)=O)CO[C@@H]1C[C@@H]2O [Paclitaxel] | 0.3 µM | 0.02 µM | 0.007 µM | 1.1 µM | 8.6 µM |  |  |  |  | similar
3 | 0.005 µM | 0.001 µM | CC[C@]1(O)C[C@@H]2CN(CCc3c([nH]c4ccccc34)[C@@](C(=O)OC)(c3cc4c(cc3OC)N(C)[C@H]3[C@@](O)(C(=O)OC)[C@H](OC(C)=O)[C@]5(CC)C=CCN6CC[C@]43[C@@H]65)C2)C1 [Vinblastine] |  |  | 0.2 µM |  | 0.73 µM |  |  |  |  | less
